Read-outs that look alike come from different tables or passages of the source.
What was measured:
[1] = target: Recombinant human Menin protein (2-610) / MLL polypeptide binding (Homo sapiens (Human), UniProt O00255); assay: Menin and MLL protein binding at a molecular level (fluorescence polarization method); details: inhibition of Menin / MLL polypeptide binding
Outline: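 Binding of recombinant human Menin (2-610) to 6-FAM-labelled MLL peptide measured by fluorescence polarization (ex 480/em 535 nm) in Tris/NaCl/TCEP buffer, pH 7.5, 2% DMSO. Compound preincubated with Menin 30 min at room temperature, then peptide added for 30 min in the dark. Tested at 1.000 down to 0.0005 μM final.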

[2] = tested on: MV-4-11 cells (human acute myelogenous leukemia cell line carrying MLL-AF4 mutation); assay: Cell proliferation assay, MV-4-11 (CellTiter-Glo); assay type: cell-based; details: Homo sapiens, MV4-11, 72 h
Outline: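 MV-4-11 cells (3000/well, IMDM with 10% HIFBS and 50 μM β-mercaptoethanol) exposed to compound at 1.100–0.001 μM final, 0.1% DMSO, for 3 days at 37°C. Viability read by CellTiter-Glo luminescence on day 0 and day 3, normalised to day-0 and untreated wells.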

[3] = MV-4-11 cells, 3 days treatment, CellTiter-Glo, read-out: GI50

Recombinant human Menin protein (2-610) / MLL polypeptide binding, sequence (O00255 2-610): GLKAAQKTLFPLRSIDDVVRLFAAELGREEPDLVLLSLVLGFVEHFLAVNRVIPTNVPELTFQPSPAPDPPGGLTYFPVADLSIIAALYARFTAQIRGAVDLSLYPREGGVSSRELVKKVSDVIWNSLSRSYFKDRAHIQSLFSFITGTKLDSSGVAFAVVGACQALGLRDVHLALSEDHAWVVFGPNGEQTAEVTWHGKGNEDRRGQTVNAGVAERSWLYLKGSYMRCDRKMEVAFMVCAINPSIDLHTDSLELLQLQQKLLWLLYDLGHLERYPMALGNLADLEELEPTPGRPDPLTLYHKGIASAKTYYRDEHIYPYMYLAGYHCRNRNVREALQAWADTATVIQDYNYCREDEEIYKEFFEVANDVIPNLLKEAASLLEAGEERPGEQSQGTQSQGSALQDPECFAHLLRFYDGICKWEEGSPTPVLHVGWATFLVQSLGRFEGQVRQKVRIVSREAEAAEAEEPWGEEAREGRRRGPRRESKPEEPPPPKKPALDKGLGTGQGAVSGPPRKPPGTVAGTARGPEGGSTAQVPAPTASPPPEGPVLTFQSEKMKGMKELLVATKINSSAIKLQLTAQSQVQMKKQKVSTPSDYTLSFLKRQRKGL

| IC50 [1] | GI50 [2, 3] | Structure (SMILES) | GI50 [2] |
| --- | --- | --- | --- |
| 2 nM | 4 nM | C=Cc1ccc(N2CCC(CN3CCC4(CC3)CN(c3ncnnc3Oc3ccc(F)cc3C(=O)N(CC)C(C)C)C4)CC2)nn1 [Compound 133, N-ethyl-5-fluoro-N-isopropyl-2-((5-(7-((1-(6-vinylpyridazin-3-yl)piperidin-4-yl)methyl)-2,7-diazaspiro[3.5]nonan-2-yl)-1,2,4-triazin-6-yl)oxy)benzamide] | – |
| 15.9 nM | 28 nM | COc1cc(N2CCC(CN3CCC4(CC3)CN(c3ncnnc3Oc3ccc(F)cc3)C4)CC2)nnc1OC [Compound 102] | – |
| 178 nM | 199 nM | CCN(C(=O)c1cc(F)ccc1Oc1nncnc1N1CC(C2CCCN2Cc2ccc3[nH]c(C#N)cc3c2C)C1)C(C)C (centres unmarked) [Compound 129] | – |
| 2.7 nM | 9 nM | CCN(C(=O)c1cc(F)ccc1Oc1nncnc1N1CC2(CCN(Cc3ccc4c(cc(C#N)n4C4COC4)c3C)CC2)C1)C(C)C [Compound 130] | – |
| 21.6 nM | 60 nM | CCN(C(=O)c1cc(F)ccc1Oc1nncnc1N1CC2(CCN(CC3CCN(c4cc5c(nn4)OCCO5)CC3)CC2)C1)C(C)C [Compound 108] | – |
| > 1000 nM | > 3300 nM | CCN(C(=O)c1cc(F)ccc1Oc1nncnc1N1CC2(CCN(Cc3ccc(Cl)nc3)CC2)C1)C(C)C [Compound 59] | – |
| > 1000 nM | 2150 nM | CCN(C(=O)c1cc(F)ccc1Oc1nncnc1N1CC2(CCN(Cc3ccc4nc(OC)ncc4c3)CC2)C1)C(C)C [Compound 70] | – |
| > 1000 nM | 1270 nM | CCN(C(=O)c1cc(F)ccc1Oc1nncnc1N1CC2(CCN(Cc3cnc4c(c3)OC[C@H](c3ccc(OC)nc3)O4)CC2)C1)C(C)C [Compound 73] | – |
| > 1000 nM | > 3300 nM | Cc1nc(-c2cc(F)ccc2Oc2nncnc2N2CC3(CCN(CC4CCN(c5ccc(C#N)cn5)CC4)CC3)C2)n(C(C)C)n1 [Compound 118] | – |
| 41.7 nM | 187 nM | CCN(C(=O)c1cc(F)ccc1Oc1nncnc1N1CC2(CCN(CC3CCN(C(=O)C(C)O)CC3)CC2)C1)C(C)C (centres unmarked) [Compound 10] | – |
| 54.9 nM | 117 nM | CCN(C(=O)c1cc(F)ccc1Oc1nncnc1N1CC2(CCN(CC3CCN(c4ccc(=O)n(C)n4)CC3)CC2)C1)C(C)C [Compound 81] | – |
| 41.8 nM | 44 nM | CCN(C(=O)c1cc(F)ccc1Oc1nncnc1N1CC2(CCN(CC3CCN(C(=O)c4ccccn4)CC3)CC2)C1)C(C)C [Compound 15] | – |
| 15.8 nM | 21 nM | CCN(C(=O)c1cc(F)ccc1Oc1nncnc1N1CC2(CCN(CC3CCN(c4ncccc4C(N)=O)CC3)CC2)C1)C(C)C [Compound 54] | – |
| 0.7 nM | 3 nM | CCN(C(=O)c1cc(F)ccc1Oc1nncnc1N1CC2(CCN(CC3CCN(c4cc(OC)c(OC)cn4)CC3)CC2)C1)C(C)C [Compound 110] | – |
| 184 nM | 170 nM | N#Cc1ccc(N2CCC(CN3CCC4(CC3)CN(c3ncnnc3Oc3ccc(F)cc3C3=C(F)C(O)CCC3)C4)CC2)nc1 (centres unmarked) [Compound 136, 6-(4-((2-(6-((5,6′-difluoro-5′-hydroxy-2′,3′,4′,5′-tetrahydro-[1,1′-biphenyl]-2-yl)oxy)-1,2,4-triazin-5-yl)-2,7-diazaspiro[3.5]nonan-7-yl)methyl)piperidin-1-yl)nicotinonitrile] | – |
| 48.7 nM | 50 nM | CCN(C(=O)c1cc(F)ccc1Oc1nncnc1N1CC2(CCN(Cc3ccc(NC(=O)CC#N)cc3C)CC2)C1)C(C)C [Compound 17] | – |
| 24.3 nM | 242 nM | CCN(C(=O)c1cc(F)ccc1Oc1nncnc1N1CC(C2(NCc3ccc4[nH]c(C#N)cc4c3C)CC2)C1)C(C)C [Compound 127] | – |
| 37.6 nM | 99 nM | CCN(C(=O)c1cc(F)ccc1Oc1nncnc1N1CC2(CCN(CC3CCN(C(=O)COC)CC3)CC2)C1)C(C)C [Compound 9] | – |
| 4.6 nM | 16 nM | CCN(C(=O)c1cc(F)ccc1Oc1nncnc1N1CC2(CCN(CC3CCN(C(=O)Nc4ccccc4F)CC3)CC2)C1)C(C)C [Compound 36, 4-((2-(6-(2-(ethyl(isopropyl)carbamoyl)-4-fluorophenoxy)-1,2,4-triazin-5-yl)-2,7-diazaspiro[3.5]nonan-7-yl)methyl)-N-(2-fluorophenyl)piperidine-1-carboxamide] | – |
| 1.1 nM | 2 nM | CCN(C(=O)c1cc(F)ccc1Oc1nncnc1N1CC2(CCN(CC3CCN(c4ccc(Cl)nn4)CC3)CC2)C1)C(C)C [Compound 46] | – |
| 574 nM | 693 nM | CCN(C(=O)c1cc(F)ccc1Oc1nncnc1N1CC2(CCN(Cc3cnc(OC)c(Cl)c3C)CC2)C1)C(C)C [Compound 60] | – |
| 1.9 nM | 4 nM | CCN(C(=O)c1cc(F)ccc1Oc1nncnc1N1CC2(CCN(CC3CCN(c4cc(OC)ccn4)CC3)CC2)C1)C(C)C [Compound 113] | – |

Second part, the compound before the results:

| Structure (SMILES) | IC50 [1] | GI50 [2, 3] | GI50 [2] |
| --- | --- | --- | --- |
| CCN(C(=O)c1cc(F)ccc1Oc1nncnc1N1CC2(CCN(CC3CCN(c4ccncn4)CC3)CC2)C1)C(C)C [Compound 165, N-ethyl-5-fluoro-N-isopropyl-2-((5-(7-((1-(pyrimidin-4-yl)piperidin-4-yl)methyl)-2,7-diazaspiro[3.5]nonan-2-yl)-1,2,4-triazin-6-yl)oxy)benzamide] | 5.3 nM | 13 nM | – |
| CCN(C(=O)c1cc(F)ccc1Oc1nncnc1N1CC2(CCN(CC3CC=C(c4ccccn4)CC3)CC2)C1)C(C)C (centres unmarked) [Compound 123] | 133 nM | 39 nM | – |
| COc1cc(N2CCC(CN3CCC4(CC3)CN(c3ncnnc3Oc3ccc(F)cc3C(=O)O)C4)CC2)nnc1OC [Compound 184, 2-((5-(7-((1-(5,6-dimethoxypyridazin-3-yl)piperidin-4-yl)methyl)-2,7-diazaspiro[3.5]nonan-2-yl)-1,2,4-triazin-6-yl)oxy)-5-fluorobenzoic acid] | > 100 nM | > 1100 nM | – |
| C=CC(=O)N1CCC(c2ccc(CN3CCC4(CC3)CN(c3ncnnc3Oc3ccc(F)cc3C(=O)N(CC)C(C)C)C4)cc2)CC1 [Compound 182] | > 1000 nM | 430 nM | – |
| CCN(C(=O)c1cc(F)ccc1Oc1nncnc1N1CCC2(CN(CC3CCN(c4cc(OC)c(OC)nn4)CC3)C2)C1)C(C)C [Compound 94] | 0.8 nM | 2 nM | – |
| CCN(C(=O)c1cc(F)ccc1Oc1nncnc1N1CC2(CCN(CC3CCN(C4COC4)CC3)CC2)C1)C(C)C [Compound 137, N-ethyl-5-fluoro-N-isopropyl-2-((5-(7-((1-(oxetan-3-yl)piperidin-4-yl)methyl)-2,7-diazaspiro[3.5]nonan-2-yl)-1,2,4-triazin-6-yl)oxy)benzamide] | 141 nM | 181 nM | – |
| CCN(C(=O)c1cc(F)ccc1Oc1nncnc1N1CC2(CCN(CC3CCN(c4cccc(=O)n4C)CC3)CC2)C1)C(C)C [Compound 168] | > 200 nM | 133 nM | – |
| CCN(C(=O)c1cc(F)ccc1Oc1nncnc1N1CC2(CCN(CC3CCN(C(=O)NC)CC3)CC2)C1)C(C)C [Compound 27] | 5.3 nM | 13 nM | – |
| CCN(C(=O)c1cc(F)ccc1Oc1nncnc1N1CC2(CCN(Cc3ccc4[nH]c(C#N)c(C5=CCOCC5)c4c3C)CC2)C1)C(C)C [Compound 131, 2-((5-(7-((2-cyano-3-(3,6-dihydro-2H-pyran-4-yl)-4-methyl-1H-indol-5-yl)methyl)-2,7-diazaspiro[3.5]nonan-2-yl)-1,2,4-triazin-6-yl)oxy)-N-ethyl-5-fluoro-N-isopropylbenzamide] | 18 nM | 18 nM | – |
| CCN(C(=O)c1cc(F)ccc1Oc1nncnc1N1CC2(CCN(CC3CCN(C(=O)C4CC4)CC3)CC2)C1)C(C)C [Compound 1, 2-((5-(7-((1-(cyclopropanecarbonyl)piperidin-4-yl)methyl)-2,7-diazaspiro[3.5]nonan-2-yl)-1,2,4-triazin-6-yl)oxy)-N-ethyl-5-fluoro-N-isopropylbenzamide] | 13.6 nM | 43 nM | – |
| CCN(C(=O)c1cc(F)ccc1Oc1nncnc1N1CC2(CCN(Cc3ccc4c(cc(C(N)=O)n4CCO)c3C)CC2)C1)C(C)C [Compound 158] | 212 nM | 131 nM | – |
| CCN(C(=O)c1cc(F)ccc1Oc1nncnc1N1CC2(CCN(CC3CCN(c4cccc(C(C)(C)O)n4)CC3)CC2)C1)C(C)C [Compound 121] | 1.5 nM | 3 nM | – |
| C=CC(=O)N1CC(C(=O)N2CCC(CN3CCC4(CC3)CN(c3ncnnc3Oc3ccc(F)cc3C(=O)N(CC)C(C)C)C4)CC2)C1 [Compound 18, 2-((5-(7-((1-(1-acryloylazetidine-3-carbonyl)piperidin-4-yl)methyl)-2,7-diazaspiro[3.5]nonan-2-yl)-1,2,4-triazin-6-yl)oxy)-N-ethyl-5-fluoro-N-isopropylbenzamide] | 14.6 nM | – | 12 nM |
| CCN(C(=O)c1cc(F)ccc1Oc1nncnc1N1CC2(CCN(CC3CCN(c4nnc(OC)cc4OC)CC3)CC2)C1)C(C)C [Compound 96] | 30 nM | 59 nM | – |
| CCN(C(=O)c1cc(F)ccc1Oc1nncnc1N1CC2(CCN(Cc3ccc4[nH]ncc4c3)CC2)C1)C(C)C [Compound 64] | 163 nM | 226 nM | – |
| CCN(C(=O)c1cc(F)ccc1Oc1nncnc1N1CC2(CCN(CC3CCN(C(=O)C(F)(F)F)CC3)CC2)C1)C(C)C [Compound 21] | 97.9 nM | 116 nM | – |
| C=CC(=O)Nc1ccc(N2CC3(CCC(CN4CCC5(CC4)CN(c4ncnnc4Oc4ccc(F)cc4C(=O)N(CC)C(C)C)C5)CC3)C2)cc1 [Compound 180] | 3.9 nM | 10 nM | – |
| CCN(C(=O)c1cc(F)ccc1Oc1nncnc1N1CC2(CCN(CC3CCN(c4ccc(OC)cn4)CC3)CC2)C1)C(C)C [Compound 112] | 5.9 nM | 5 nM | – |

From patent publication US20260055108A1, “TRIAZINE COMPOUNDS AND USES THEREOF” (HUTCHMED LIMITED, priority 2022, published 2026)
